From the supplement of paper PMC10307832

Key:
Experiment in all cases: relative viability (nuclei count vs DMSO), 5 days (fraction); higher = more cells survive
PAC-1 + Dasatinib = compound: C=CCc1cccc(/C=N/NC(=O)CN2CCN(Cc3ccccc3)CC2)c1O [PAC-1] + Cc1nc(Nc2ncc(C(=O)Nc3c(C)cccc3Cl)s2)cc(N2CCN(CCO)CC2)n1 [Dasatinib] (partner 0.075 µM)
Outline: (§1)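 Nuclei were stained with Hoechst during a one-step fixation (final 0.05% Triton X-100, 1% formaldehyde, 1 ug/ml Hoechst) carried out 5 days after dosing, then counted on 4× images. The cells, lung cancer lines in 1536-well plates, had been dosed by pin tool the day after seeding with one drug alone or a fixed anchor-drug dose plus five library-drug doses (not always all listed) in √10 steps. Relative viability is the nuclei count in treated wells divided by that in vehicle wells, and each value is the median of duplicate plates.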

BMX-IN-1 + Crizotinib = compound: C=CC(=O)Nc1cc(-n2c(=O)ccc3cnc4ccc(-c5ccc(NS(C)(=O)=O)cc5)cc4c32)ccc1C [BMX-IN-1] + C[C@@H](Oc1cc(-c2cnn(C3CCNCC3)c2)cnc1N)c1c(Cl)ccc(F)c1Cl [Crizotinib] (partner 1 µM)
Outline: as §1

BMX-IN-1 + Lapatinib = compound: C=CC(=O)Nc1cc(-n2c(=O)ccc3cnc4ccc(-c5ccc(NS(C)(=O)=O)cc5)cc4c32)ccc1C [BMX-IN-1] + CS(=O)(=O)CCNCc1ccc(-c2ccc3ncnc(Nc4ccc(OCc5cccc(F)c5)c(Cl)c4)c3c2)o1 [Lapatinib] (partner 2 µM)
Outline: as §1

Row | Cell Line | relative viability (PAC-1 + Dasatinib; first compound 0.02 µM) | relative viability (PAC-1 + Dasatinib; first compound 0.06325 µM) | relative viability (PAC-1 + Dasatinib; first compound 0.2 µM) | relative viability (PAC-1 + Dasatinib; first compound 2 µM) | relative viability (BMX-IN-1 + Crizotinib; first compound 0.02 µM) | relative viability (BMX-IN-1 + Crizotinib; first compound 0.2 µM) | relative viability (BMX-IN-1 + Crizotinib; first compound 0.6325 µM) | relative viability (BMX-IN-1 + Crizotinib; first compound 2 µM) | relative viability (BMX-IN-1 + Lapatinib; first compound 0.02 µM) | relative viability (BMX-IN-1 + Lapatinib; first compound 0.2 µM) | relative viability (BMX-IN-1 + Lapatinib; first compound 0.6325 µM) | relative viability (BMX-IN-1 + Lapatinib; first compound 2 µM)
1 | COR-L23 | 0.472 | 0.48 | 0.453 | 0.506 | 0.942 | 0.641 | 0.864 | 0.767 | 1.65 | 1.47 | 1.17 | 0.941
2 | NCI-H2405 | 0.173 | 0.221 | 0.207 | 0.176 | 0.939 | 0.892 | 0.903 | 0.886 | 1.15 | 1.04 | 1.09 | 1.05
3 | A-427 | 0.77 | 0.665 | 0.666 | 0.697 | 0.966 | 0.903 | 1.09 | 0.887 | 1.21 | 0.995 | 1.17 | 1.06
4 | SK-LU-1 | 0.208 | 0.173 | 0.185 | 0.181 | 1.02 | 0.906 | 0.868 | 0.904 | 1.3 | 0.779 | 0.938 | 0.771
5 | NCI-H2170 | 0.499 | 0.506 | 0.625 | 0.712 | 1.5 | 1.27 | 1.1 | 1.38 | 0.281 | 0.28 | 0.272 | 0.271
6 | RERF-LC-KJ | 0.826 | 0.812 | 0.775 | 0.786 | 0.813 | 1.09 | 0.865 | 0.807 | 0.876 | 0.944 | 0.963 | 0.918
7 | LXF-289 | 0.228 | 0.226 | 0.192 | 0.223 | 0.876 | 0.907 | 0.842 | 0.815 | 0.982 | 1.01 | 0.957 | 0.983
8 | LC-2-ad | 0.552 | 0.629 | 0.603 | 0.489 | 0.374 | 0.518 | 0.484 | 0.494 | 1.12 | 1.12 | 1.09 | 1.05
9 | NCI-H23 | 0.734 | 0.887 | 0.826 | 0.948 | 0.501 | 0.538 | 0.419 | 0.5 | 1.04 | 1.24 | 1.01 | 1
